Assay results as given in ChEMBL document CHEMBL4382259, “Synthesis of novel guttiferone E and xanthochymol derivatives with cytotoxicities by inducing cell apoptosis and arresting the cell cycle phase” (Eur J Med Chem, 2019).
pIC50: −log10 of the molar value. Values belong to the compound of their own block, whether it stands above or below them. Activity calls are given as the source filed them. The calls are words filed in the database; no cut-off is given here.

Legend:
HEL [1] = assay: Induction of apoptosis in HEL cells assessed as viable cells at 5 uM after 48 hrs by Annexin V-FITC/propidium iodide staining based flow cytometry (reference value: 88.3%); format: functional; settings: Homo sapiens, read-out: Activity
HEL [2] = assay: Induction of apoptosis in HEL cells assessed as necrotic cells at 2.5 uM after 48 hrs by Annexin V-FITC/propidium iodide staining based flow cytometry (reference value: 0.5%); format: functional, Homo sapiens
HEL [3] = assay: Down regulation of Bcl2 expression in HEL cells after 24 hrs by Western blot analysis; format: functional, cell-based; settings: Homo sapiens
HEL [4] = assay: Up regulation of cleaved caspase3 expression in HEL cells at 2.5 to 10 uM after 24 hrs by Western blot analysis; format: functional, cell-based; settings: Homo sapiens
HEL [5] = assay: Antiproliferative activity against HEL cells after 72 hrs by MTT assay; format: functional, cell-based; settings: Homo sapiens
K562 = assay: Antiproliferative activity against human K562 cells after 72 hrs by MTT assay; format: functional, cell-based; settings: K562, 72 h
HeLa = assay: Antiproliferative activity against human HeLa cells after 72 hrs by MTT assay; format: functional, cell-based
MCF7 = assay: Antiproliferative activity against human MCF7 cells after 72 hrs by MTT assay; format: functional, cell-based; settings: MCF7, 72 h
A549 = assay: Antiproliferative activity against human A549 cells after 72 hrs by MTT assay; format: functional, cell-based; settings: A549, 72 h
HEL [6] = assay: Induction of morphological changes in HEL cells assessed as cell shrinkage at 5 uM after 48 hrs by microscopic analysis; format: functional, cell-based; settings: Homo sapiens
HEL [7] = assay: Induction of morphological changes in HEL cells assessed as cell fragmentation at 5 uM after 48 hrs by microscopic analysis; format: functional, cell-based; settings: Homo sapiens
HEL [8] = assay: Induction of morphological changes in HEL cells at 2.5 uM after 48 hrs by microscopic analysis; format: functional, cell-based; settings: Homo sapiens
HEL [9] = assay: Induction of cell death in HEL cells at 10 uM after 48 hrs by microscopic analysis; format: functional, cell-based; settings: Homo sapiens
HEL [10] = assay: Induction of apoptosis in HEL cells assessed as viable cells at 2.5 uM after 24 hrs by Annexin V-FITC/propidium iodide staining based flow cytometry (reference value: 88.6%); format: functional; settings: Homo sapiens, read-out: Activity
HEL [11] = assay: Induction of apoptosis in HEL cells assessed as early apoptotic cells at 2.5 uM after 24 hrs by Annexin V-FITC/propidium iodide staining based flow cytometry (reference value: 9.9%); format: functional, Homo sapiens
HEL [12] = assay: Induction of apoptosis in HEL cells assessed as late apoptotic cells at 2.5 uM after 24 hrs by Annexin V-FITC/propidium iodide staining based flow cytometry (reference value: 1.2%); format: functional, Homo sapiens
HEL [13] = assay: Induction of apoptosis in HEL cells assessed as necrotic cells at 2.5 uM after 24 hrs by Annexin V-FITC/propidium iodide staining based flow cytometry (reference value: 0.2%); format: functional, Homo sapiens
HEL [14] = assay: Induction of apoptosis in HEL cells assessed as viable cells at 5 uM after 24 hrs by Annexin V-FITC/propidium iodide staining based flow cytometry (reference value: 88.6%); format: functional; settings: Homo sapiens, read-out: Activity
HEL [15] = assay: Induction of apoptosis in HEL cells assessed as early apoptotic cells at 5 uM after 24 hrs by Annexin V-FITC/propidium iodide staining based flow cytometry (reference value: 9.9%); format: functional, Homo sapiens
HEL [16] = assay: Induction of apoptosis in HEL cells assessed as late apoptotic cells at 5 uM after 24 hrs by Annexin V-FITC/propidium iodide staining based flow cytometry (reference value: 1.2%); format: functional, Homo sapiens
HEL [17] = assay: Induction of apoptosis in HEL cells assessed as necrotic cells at 5 uM after 24 hrs by Annexin V-FITC/propidium iodide staining based flow cytometry (reference value: 0.2%); format: functional, Homo sapiens
HEL [18] = assay: Induction of apoptosis in HEL cells assessed as viable cells at 10 uM after 24 hrs by Annexin V-FITC/propidium iodide staining based flow cytometry (reference value: 88.6%); format: functional; settings: Homo sapiens, read-out: Activity
HEL [19] = assay: Induction of apoptosis in HEL cells assessed as early apoptotic cells at 10 uM after 24 hrs by Annexin V-FITC/propidium iodide staining based flow cytometry (reference value: 9.9%); format: functional, Homo sapiens
HEL [20] = assay: Induction of apoptosis in HEL cells assessed as late apoptotic cells at 10 uM after 24 hrs by Annexin V-FITC/propidium iodide staining based flow cytometry (reference value: 1.2%); format: functional, Homo sapiens
HEL [21] = assay: Induction of apoptosis in HEL cells assessed as necrotic cells at 10 uM after 24 hrs by Annexin V-FITC/propidium iodide staining based flow cytometry (reference value: 0.2%); format: functional, Homo sapiens
HEL [22] = assay: Induction of apoptosis in HEL cells assessed as viable cells at 2.5 uM after 48 hrs by Annexin V-FITC/propidium iodide staining based flow cytometry (reference value: 88.3%); format: functional; settings: Homo sapiens, read-out: Activity
HEL [23] = assay: Induction of apoptosis in HEL cells assessed as early apoptotic cells at 2.5 uM after 48 hrs by Annexin V-FITC/propidium iodide staining based flow cytometry (reference value: 8%); format: functional, Homo sapiens
HEL [24] = assay: Induction of apoptosis in HEL cells assessed as late apoptotic cells at 2.5 uM after 48 hrs by Annexin V-FITC/propidium iodide staining based flow cytometry (reference value: 3.3%); format: functional, Homo sapiens
HEL [25] = assay: Induction of apoptosis in HEL cells assessed as early apoptotic cells at 5 uM after 48 hrs by Annexin V-FITC/propidium iodide staining based flow cytometry (reference value: 8%); format: functional, Homo sapiens
HEL [26] = assay: Induction of apoptosis in HEL cells assessed as late apoptotic cells at 5 uM after 48 hrs by Annexin V-FITC/propidium iodide staining based flow cytometry (reference value: 3.3%); format: functional, Homo sapiens
HEL [27] = assay: Induction of apoptosis in HEL cells assessed as necrotic cells at 5 uM after 48 hrs by Annexin V-FITC/propidium iodide staining based flow cytometry (reference value: 0.5%); format: functional, Homo sapiens
HEL [28] = assay: Induction of apoptosis in HEL cells assessed as viable cells at 10 uM after 48 hrs by Annexin V-FITC/propidium iodide staining based flow cytometry (reference value: 88.3%); format: functional; settings: Homo sapiens, read-out: Activity
HEL [29] = assay: Induction of apoptosis in HEL cells assessed as early apoptotic cells at 10 uM after 48 hrs by Annexin V-FITC/propidium iodide staining based flow cytometry (reference value: 8%); format: functional, Homo sapiens
HEL [30] = assay: Induction of apoptosis in HEL cells assessed as late apoptotic cells at 10 uM after 48 hrs by Annexin V-FITC/propidium iodide staining based flow cytometry (reference value: 3.3%); format: functional, Homo sapiens
HEL [31] = assay: Induction of apoptosis in HEL cells assessed as necrotic cells at 10 uM after 48 hrs by Annexin V-FITC/propidium iodide staining based flow cytometry (reference value: 0.5%); format: functional, Homo sapiens
HEL [32] = assay: Cell cycle arrest in HEL cells assessed as accumulation at G0/G1 phase at 5 uM after 48 hrs propidium iodide staining based flow cytometry (reference value: 37.72%); format: functional, Homo sapiens
HEL [33] = assay: Cell cycle arrest in HEL cells assessed as accumulation at S phase at 5 uM after 48 hrs propidium iodide staining based flow cytometry (reference value: 45.65%); format: functional, Homo sapiens
HEL [34] = assay: Cell cycle arrest in HEL cells assessed as accumulation at G2/M phase at 5 uM after 48 hrs propidium iodide staining based flow cytometry (reference value: 14.33%); format: functional, Homo sapiens
HEL [35] = assay: Up regulation of Bax expression in HEL cells after 24 hrs by Western blot analysis; format: functional, cell-based; settings: Homo sapiens
HEL [36] = assay: Down regulation of full-length PARP1 expression in HEL cells at 2.5 to 10 uM after 24 hrs by Western blot analysis; format: functional, cell-based; settings: Homo sapiens
HEL [37] = assay: Down regulation of cyclin D1 expression in HEL cells at 2.5 to 10 uM after 24 hrs by Western blot analysis; format: functional, cell-based; settings: Homo sapiens

pIC50 (K562): 5.11
pIC50 (HeLa): < 4.70
pIC50 (MCF7): 4.87
pIC50 (A549): < 4.70
SMILES: CC(C)=CC[C@H]1C[C@]23C[C@@H](CC=C(C)C)C(C)(C)[C@H]4CCC(C)(C)O[C@]42OC(=O)C(C(=O)c2ccc(O)c(O)c2)=C3OC1(C)C
viability at 5 µM (HEL [1]): 72.6%
Activity (HEL [2]): 1.6%
Activity (HEL [3]): Dose-dependent effect
Activity (HEL [4]): Active
pIC50 (HEL [5]): 5.32
Activity (HEL [6]): Active
Activity (HEL [7]): Active
Activity (HEL [8]): Active
Activity (HEL [9]): Active
viability at 2.5 µM (HEL [10]): 86.6%
Activity (HEL [11]): 10.6%
Activity (HEL [12]): 2.3%
Activity (HEL [13]): 0.4%
viability at 5 µM (HEL [14]): 80.9%
Activity (HEL [15]): 15.3%
Activity (HEL [16]): 3.3%
Activity (HEL [17]): 0.4%
viability at 10 µM (HEL [18]): 61.6%
Activity (HEL [19]): 34.6%
Activity (HEL [20]): 3%
Activity (HEL [21]): 0.8%
viability at 2.5 µM (HEL [22]): 84.8%
Activity (HEL [23]): 7.2%
Activity (HEL [24]): 6.4%
Activity (HEL [25]): 21%
Activity (HEL [26]): 5.8%
Activity (HEL [27]): 0.6%
viability at 10 µM (HEL [28]): 49.2%
Activity (HEL [29]): 32.5%
Activity (HEL [30]): 15.9%
Activity (HEL [31]): 2.4%
Activity (HEL [32]): 59.29%
Activity (HEL [33]): 28.81%
Activity (HEL [34]): 10.76%
Activity (HEL [35]): Dose-dependent effect
Activity (HEL [36]): Active
Activity (HEL [37]): Active

pIC50 (K562): < 4.70
pIC50 (HeLa): < 4.70
pIC50 (MCF7): < 4.70
pIC50 (A549): < 4.70
SMILES: CC(C)=CC[C@H]1C[C@@]23C[C@@H](CC=C(C)C)C(C)(C)[C@@](CC=C(C)C)(C(=O)C(C(=O)c4ccc(OC(=O)c5ccccc5)c(OC(=O)c5ccccc5)c4)=C2OC1(C)C)C3=O
pIC50 (HEL [5]): < 4.70

pIC50 (K562): < 4.70
pIC50 (HeLa): 4.92
pIC50 (MCF7): 4.78
pIC50 (A549): 4.93
SMILES: CC(C)=CC[C@H]1C[C@]23C[C@@H](CC=C(C)C)C(C)(C)[C@H]4CCC(C)(C)O[C@]42OC(=O)C(C(=O)c2ccc(OC(=O)c4ccc(F)cc4)c(OC(=O)c4ccc(F)cc4)c2)=C3OC1(C)C
pIC50 (HEL [5]): < 4.70

pIC50 (K562): < 4.70
pIC50 (HeLa): < 4.70
pIC50 (MCF7): < 4.70
pIC50 (A549): < 4.70
SMILES: CC(C)=CC[C@H]1C[C@@]23C[C@@H](CC=C(C)C)C(C)(C)[C@@](CC=C(C)C)(C(=O)C(C(=O)c4ccc(OCCCCCBr)c(OCCCCCBr)c4)=C2OC1(C)C)C3=O
pIC50 (HEL [5]): < 4.70

pIC50 (K562): < 4.70
pIC50 (HeLa): 4.73
pIC50 (MCF7): 4.80
pIC50 (A549): < 4.70
SMILES: CC(C)=CC[C@H]1C[C@@]23C[C@@H](CC=C(C)C)C(C)(C)[C@@](CC=C(C)C)(C(=O)C(C(=O)c4ccc(O)c(OS(=O)(=O)c5ccc(C)cc5)c4)=C2OC1(C)C)C3=O
pIC50 (HEL [5]): 5.33

pIC50 (K562): < 4.70
pIC50 (HeLa): 5.00
pIC50 (MCF7): 5.40
pIC50 (A549): 4.86
SMILES: C=CC(=O)Oc1ccc(C(=O)C2=C3OC(C)(C)[C@@H](CC=C(C)C)C[C@@]34C[C@@H](CC=C(C)C)C(C)(C)[C@@](CC=C(C)C)(C2=O)C4=O)cc1OC(=O)C=C
pIC50 (HEL [5]): < 4.70

pIC50 (K562): < 4.70
pIC50 (HeLa): 4.81
pIC50 (MCF7): < 4.70
pIC50 (A549): < 4.70
SMILES: CCC(=O)Oc1ccc(C(=O)C2=C3OC(C)(C)[C@@H](CC=C(C)C)C[C@@]34C[C@@H](CC=C(C)C)C(C)(C)[C@H]3CCC(C)(C)O[C@]34OC2=O)cc1OC(=O)CC
pIC50 (HEL [5]): 5.02

pIC50 (K562): < 4.70
pIC50 (HeLa): 4.80
pIC50 (MCF7): < 4.70
pIC50 (A549): < 4.70
SMILES: C=CCOc1ccc(C(=O)C2=C3OC(C)(C)[C@@H](CC=C(C)C)C[C@@]34C[C@@H](CC=C(C)C)C(C)(C)[C@@](CC=C(C)C)(C2=O)C4=O)cc1OCC=C
pIC50 (HEL [5]): < 4.70
